One data set relates to NCI-H1975. In words: Anticancer activity against human NCI-H1975 cells harboring EGFR L858R/T790M mutant assessed as reduction in cell viability measured after 72 hrs by MTT assay. The data set is classed as functional, cell-based. As to conditions: NCI-H1975, 72 h. (Formazan colour is commonly taken as a measure of viable cells.)
Data set [1] relates to A549. In words: Anticancer activity against human A549 cells assessed as reduction in cell viability measured after 72 hrs by MTT assay. The settings on record: A549, 72 h. In kind it is functional, cell-based.
The test system of a further data set is HCC827. Nature of the data set: Anticancer activity against human HCC827 cells harboring EGFR E746_A750 del mutant assessed as reduction in cell viability measured after 72 hrs by MTT assay. The data set is classed as functional, cell-based. The settings on record: HCC827, 72 h.
The test system of data set [2] is A549. Nature of the data set: Anticancer activity against human A549 cells overexpressing wild type EGFR assessed as reduction in cell viability measured after 72 hrs by MTT assay. The data set is classed as functional, cell-based. As to conditions: A549, 72 h.
Data set [3] in a line: Cytotoxicity against human BEAS-2B cells assessed as reduction in cell viability measured after 72 hrs by MTT assay. In kind it is toxicity, cell-based.
The target in data set [4] is Epidermal growth factor receptor (Homo sapiens, UniProt P00533, L858R/T790M). In words: Inhibition of EGFR L858R/T790M mutant (unknown origin) using poly (Glu,Tyr) as substrate incubated for 40 mins in presence of ATP by Kinase-Glo luminescent analysis.
Epidermal growth factor receptor (Homo sapiens, UniProt P00533, L858R/T790M), sequence (P00533 25-1210 T790M/L858R limits assumed): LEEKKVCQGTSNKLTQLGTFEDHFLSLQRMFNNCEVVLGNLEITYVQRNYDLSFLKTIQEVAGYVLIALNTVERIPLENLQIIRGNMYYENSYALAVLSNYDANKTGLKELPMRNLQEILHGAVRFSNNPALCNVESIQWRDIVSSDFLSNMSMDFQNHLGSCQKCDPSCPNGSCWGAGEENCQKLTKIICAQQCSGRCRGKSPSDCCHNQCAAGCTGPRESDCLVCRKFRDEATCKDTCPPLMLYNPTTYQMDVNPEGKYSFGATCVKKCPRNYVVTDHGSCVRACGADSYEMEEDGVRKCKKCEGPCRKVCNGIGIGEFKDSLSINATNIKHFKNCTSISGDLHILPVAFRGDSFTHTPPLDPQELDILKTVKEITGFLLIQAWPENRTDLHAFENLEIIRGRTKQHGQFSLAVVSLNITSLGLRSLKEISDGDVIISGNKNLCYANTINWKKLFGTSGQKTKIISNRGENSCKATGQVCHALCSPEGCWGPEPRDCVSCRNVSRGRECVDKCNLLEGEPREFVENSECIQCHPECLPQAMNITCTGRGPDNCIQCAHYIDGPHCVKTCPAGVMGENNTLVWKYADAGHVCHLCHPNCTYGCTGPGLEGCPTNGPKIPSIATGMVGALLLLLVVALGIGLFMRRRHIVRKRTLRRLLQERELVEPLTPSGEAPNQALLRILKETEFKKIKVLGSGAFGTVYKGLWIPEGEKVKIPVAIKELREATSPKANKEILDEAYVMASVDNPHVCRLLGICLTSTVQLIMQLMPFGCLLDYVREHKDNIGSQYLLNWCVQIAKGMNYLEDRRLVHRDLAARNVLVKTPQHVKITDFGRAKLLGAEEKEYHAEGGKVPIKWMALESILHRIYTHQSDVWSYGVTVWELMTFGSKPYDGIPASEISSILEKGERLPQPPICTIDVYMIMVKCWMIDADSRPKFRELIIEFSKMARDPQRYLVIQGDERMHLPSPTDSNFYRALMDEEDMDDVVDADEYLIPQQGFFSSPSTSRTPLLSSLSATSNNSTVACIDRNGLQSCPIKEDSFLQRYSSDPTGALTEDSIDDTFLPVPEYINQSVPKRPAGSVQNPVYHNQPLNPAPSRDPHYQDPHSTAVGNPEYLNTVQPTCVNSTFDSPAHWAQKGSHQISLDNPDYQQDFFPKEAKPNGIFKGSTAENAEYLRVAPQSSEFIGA
Data set [5] relates to Epidermal growth factor receptor (Homo sapiens), P00533 [UNDEFINED MUTATION]. Nature of the data set: Inhibition of EGFR E746_A750 del mutant in human HCC827 cells assessed as inhibition of Akt phosphorylation at 0.01 to 1 uM by western blot analysis. The data set is classed as cell-based. The settings on record: dose 0.01-1 µM.
Epidermal growth factor receptor (Homo sapiens), P00533 [UNDEFINED MUTATION], sequence (P00533 whole entry, looked up, stated change not applied): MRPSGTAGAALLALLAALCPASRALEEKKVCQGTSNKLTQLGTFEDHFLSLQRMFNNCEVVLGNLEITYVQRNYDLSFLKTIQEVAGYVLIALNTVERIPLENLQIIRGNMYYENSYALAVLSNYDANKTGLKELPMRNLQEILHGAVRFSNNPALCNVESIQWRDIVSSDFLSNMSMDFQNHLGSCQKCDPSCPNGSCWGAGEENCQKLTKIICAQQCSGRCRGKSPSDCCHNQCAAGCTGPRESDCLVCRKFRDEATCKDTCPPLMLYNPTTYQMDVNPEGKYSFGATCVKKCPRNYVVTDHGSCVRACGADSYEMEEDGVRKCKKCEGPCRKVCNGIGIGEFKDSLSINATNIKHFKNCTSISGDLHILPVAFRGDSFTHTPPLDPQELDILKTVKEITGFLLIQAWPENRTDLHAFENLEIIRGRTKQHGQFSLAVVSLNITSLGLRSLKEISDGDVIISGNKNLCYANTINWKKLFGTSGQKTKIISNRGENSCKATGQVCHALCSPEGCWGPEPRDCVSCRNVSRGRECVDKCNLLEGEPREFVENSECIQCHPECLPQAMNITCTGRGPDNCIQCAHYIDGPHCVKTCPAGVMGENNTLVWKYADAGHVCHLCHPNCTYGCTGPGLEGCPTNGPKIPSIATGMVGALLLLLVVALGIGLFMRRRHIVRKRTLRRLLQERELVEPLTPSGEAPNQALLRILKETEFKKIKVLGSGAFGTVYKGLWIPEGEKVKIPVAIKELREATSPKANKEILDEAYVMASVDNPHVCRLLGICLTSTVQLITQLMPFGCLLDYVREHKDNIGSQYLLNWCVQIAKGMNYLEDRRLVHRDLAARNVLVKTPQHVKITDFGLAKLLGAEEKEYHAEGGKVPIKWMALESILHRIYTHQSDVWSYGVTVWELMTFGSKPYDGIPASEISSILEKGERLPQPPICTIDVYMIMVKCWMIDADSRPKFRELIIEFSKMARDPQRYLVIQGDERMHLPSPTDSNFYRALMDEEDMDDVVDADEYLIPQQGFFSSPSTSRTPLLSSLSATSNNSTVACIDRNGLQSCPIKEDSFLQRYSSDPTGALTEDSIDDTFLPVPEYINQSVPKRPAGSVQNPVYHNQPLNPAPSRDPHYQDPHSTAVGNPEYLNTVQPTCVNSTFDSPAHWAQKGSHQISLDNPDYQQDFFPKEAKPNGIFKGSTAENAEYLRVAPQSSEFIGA
Data set [6] relates to NSCLC. Nature of the data set: Induction of apoptosis in human NSCLC assessed as early apoptotic cells at IC50 measured after 24 to 48 hrs by AnnexinV-FITC/PI staining based flow cytometry (reference value: 2.1%). As to conditions: time 24-48 hrs. In kind it is functional. In general terms: A flow cytometer gives signals particle by particle.
Data set [7] concerns NSCLC. Nature of the data set: Induction of apoptosis in human NSCLC assessed as late apoptotic cells at IC50 measured after 24 to 48 hrs by AnnexinV-FITC/PI staining based flow cytometry (reference value: 1.1%). As to conditions: time 24-48 hrs. In kind it is functional.
Data set [8] addresses Epidermal growth factor receptor (Homo sapiens, UniProt P00533). Nature of the data set: Inhibition of EGFR (unknown origin).

The structures appear in SMILES notation. The source made the active and inactive calls. The rule behind the calls is not given here.

The source of these data is ChEMBL document CHEMBL5385853, “Design, synthesis, and biological evaluation of novel quinoline derivatives as small molecule mutant EGFR inhibitors targeting resistance in NSCLC: In vitro screening and ADME predictions” (Eur J Med Chem, 2023).

By IC50 is commonly meant the concentration that inhibits the measured activity by half.

Epidermal growth factor receptor (Homo sapiens, UniProt P00533), sequence (P00533 whole entry): as the sequence (P00533 whole entry, looked up, stated change not applied) above

Take `CCOC(=O)c1c(-n2ccnc2)nc2ccc(Br)cc2c1N1CCN(c2ccccc2NC(=O)c2cccc(Br)c2)CC1`: the IC50 was found to be 2.82 µM with NCI-H1975, 8.58 µM in the data set with A549 [1], 0.16 µM with HCC827 and 4.92 µM with A549 [2].

As for `CCOC(=O)c1c(-n2ccnc2)nc2ccc(Br)cc2c1N1CCN(c2ccccc2N)CC1`, the concentration for half-maximal inhibition (IC50) in the data set on NCI-H1975 came to 13.1 µM; in the data set with A549 [1] it was 16.8 µM; in the data set on HCC827 it was 0.97 µM; with A549 [2] it was 11.5 µM.

For `CCOC(=O)c1c(-n2ccnc2)nc2ccc(Br)cc2c1N1CCNCC1`, the half-maximal inhibitory concentration (IC50) in the data set with NCI-H1975 was 15.2 µM; with A549 [1], 16.2 µM; in the data set with HCC827, 2.45 µM; in the data set with A549 [2] it was 11.4 µM.

For the compound `CCOC(=O)c1c(-n2ccnc2)nc2ccc(Br)cc2c1N1CCN(c2ccccc2NS(=O)(=O)c2ccc(F)cc2)CC1`, the IC50 with NCI-H1975 is 0.82 µM; in the data set on A549 [1] it was 4.22 µM; in data set [4] it was 0.152 µM; in the data set on HCC827 it was 0.062 µM; in the data set on A549 [2], 1.88 µM. In data set [3], the concentration for half-maximal inhibition (IC50) at 72 h amounted to 86.5 µM.

As to `CCOC(=O)c1c(-n2ccnc2)nc2ccc(Br)cc2c1N1CCN(c2ccccc2NS(=O)(=O)c2ccc(C(F)(F)F)cc2)CC1`, the 50% inhibitory concentration (IC50) in the data set on NCI-H1975 worked out at 0.21 µM; in the data set with A549 [1], 2.99 µM; in data set [4] it was 0.138 µM; in the data set on HCC827, 0.01 µM; with A549 [2], 0.99 µM. For the same compound, in data set [5], the inhibition entry was “inactive”. In addition, the Activity in the data set with NSCLC [6] came to 26.8%; with NSCLC [7], 4.2%. For the same compound, the IC50 at 72 h in [3] turned out to be 85.1 µM.

`CCOC(=O)c1c(-n2ccnc2)nc2ccc(Br)cc2c1N1CCN(c2ccccc2NS(=O)(=O)c2ccc(OC)cc2)CC1`: the concentration for half-maximal inhibition (IC50) in the data set on NCI-H1975 was 4.8 µM; with A549 [1], 10.2 µM; in the data set on HCC827, 0.38 µM; in the data set on A549 [2], 6.11 µM.

`CCOC(=O)c1c(-n2ccnc2)nc2ccc(Br)cc2c1N1CCN(c2ccccc2NS(=O)(=O)C2CC2)CC1`: the 50% inhibitory concentration (IC50) with NCI-H1975 is 7.16 µM; in the data set with A549 [1], 11.1 µM; with HCC827, 0.67 µM; in the data set on A549 [2], 7.84 µM.

As to `CCOC(=O)c1c(-n2ccnc2)nc2ccc(Br)cc2c1N1CCN(c2ccccc2NS(=O)(=O)c2ccc(Br)cc2)CC1`, the 50% inhibitory concentration (IC50) with NCI-H1975 stood at 2.86 µM; in the data set on A549 [1] it was 8.22 µM; in the data set on HCC827, 0.22 µM; in the data set with A549 [2], 5.02 µM.

Take `CCOC(=O)c1c(-n2ccnc2)nc2ccc(Br)cc2c1N1CCN(c2ccccc2NC(=O)c2cccc(OC)c2OC)CC1`: the half-inhibitory concentration (IC50) in the data set on NCI-H1975 turned out to be 6.14 µM; with A549 [1], 11.2 µM; in the data set on HCC827 it was 0.52 µM; with A549 [2], 8.73 µM.

Take `CCOC(=O)c1c(-n2ccnc2)nc2ccc(Br)cc2c1N1CCN(c2ccccc2[N+](=O)[O-])CC1`: the IC50 was 4.43 µM with NCI-H1975, 10.1 µM in the data set with A549 [1], 0.28 µM in the data set on HCC827 and 6.09 µM with A549 [2].

For `CCOC(=O)c1c(-n2ccnc2)nc2ccc(Br)cc2c1N1CCN(C(=O)OC(C)(C)C)CC1`, the IC50 in the data set with NCI-H1975 turned out to be 16 µM; with A549 [1], 14.2 µM; in the data set with HCC827, 2.11 µM; with A549 [2], 12.2 µM.

Regarding `CCOC(=O)c1c(-n2ccnc2)nc2ccc(Br)cc2c1N1CCN(c2ccccc2NS(=O)(=O)c2ccc(S(C)(=O)=O)cc2)CC1`, the half-maximal inhibitory concentration (IC50) turned out to be 11.1 µM with NCI-H1975, 14.6 µM in the data set on A549 [1], 0.89 µM in the data set on HCC827 and 10.3 µM in the data set with A549 [2].

In the case of `CCOC(=O)c1c(-n2ccnc2)nc2ccc(Br)cc2c1N1CCN(c2ccccc2NS(=O)(=O)c2cccc(C#N)c2)CC1`, the 50% inhibitory concentration (IC50) turned out to be 4.3 µM in the data set on NCI-H1975, 9.22 µM in the data set with A549 [1], 0.38 µM in the data set with HCC827 and 5.99 µM in the data set on A549 [2].

As to `COc1cc2ncc(C#N)c(Nc3cccc(Br)c3)c2cc1OC`, in [8], the 50% inhibitory concentration (IC50) was 0.0075 µM.

`CCOC(=O)c1c(-n2ccnc2)nc2ccc(Br)cc2c1N1CCN(c2ccccc2NC(=O)C2CC(=O)C2)CC1`: the IC50 in the data set with NCI-H1975 stood at 0.11 µM; with A549 [1], 11 µM; in the data set with HCC827, 0.1 µM; in the data set with A549 [2], 7.94 µM.

Compound `N#Cc1c(-c2ccc3ncc(C(N)=O)c(Nc4cccc(Br)c4)c3c2)csc1N` came in with an IC50 in data set [8] of 0.49 µM.

In the case of `C=CC(=O)Nc1cc(Nc2nccc(-c3cn(C)c4ccccc34)n2)c(OC)cc1N(C)CCN(C)C` [OSIMERTINIB], the IC50 is […] in the data set on NCI-H1975, 2.67 µM in the data set with A549 [1], 0.004 µM with HCC827 and […] in the data set on A549 [2].

Take `CCOC(=O)c1c(-n2ccnc2)nc2ccc(Br)cc2c1N1CCN(c2ccccc2NS(=O)(=O)c2ccc(C#N)cc2)CC1`: the 50% inhibitory concentration (IC50) in the data set on NCI-H1975 was 4.12 µM; in the data set with A549 [1], 9.11 µM; with HCC827, 0.33 µM; in the data set with A549 [2], 5.82 µM.

With `CCOC(=O)c1c(-n2ccnc2)nc2ccc(Br)cc2c1N1CCN(c2ccccc2NC(=O)c2cc(F)ccc2Br)CC1`, the half-inhibitory concentration (IC50) came to 2.69 µM in the data set with NCI-H1975, 7.01 µM with A549 [1], 0.18 µM in the data set on HCC827 and 4.82 µM with A549 [2].

For `CCCc1cc(C(=O)Nc2ccccc2N2CCN(c3c(C(=O)OCC)c(-n4ccnc4)nc4ccc(Br)cc34)CC2)n(C)n1`, the half-maximal inhibitory concentration (IC50) in the data set on NCI-H1975 came to 9.36 µM; in the data set with A549 [1] it was 11.5 µM; in the data set on HCC827 it was 0.88 µM; with A549 [2], 8.22 µM.

Take `CCOC(=O)c1c(-n2ccnc2)nc2ccc(Br)cc2c1N1CCN(c2ccccc2NS(=O)(=O)c2ccccc2F)CC1`: the half-maximal inhibitory concentration (IC50) in the data set with NCI-H1975 was determined as 0.86 µM; in the data set with A549 [1], 4.87 µM; in [4] it was 0.144 µM; with HCC827, 0.05 µM; in the data set on A549 [2], 2.41 µM. Further, in [5], the inhibition result was “inactive”.

Consider `CCOC(=O)c1c(-n2ccnc2)nc2ccc(Br)cc2c1N1CCN(c2ccccc2NS(=O)(=O)c2ccc(Cl)cc2)CC1`, for which the IC50 in the data set on NCI-H1975 is 2.86 µM; in the data set with A549 [1] it was 8.36 µM; in the data set on HCC827 it was 0.22 µM; in the data set with A549 [2], 5.64 µM.

As to `CCOC(=O)c1c(-n2ccnc2)nc2ccc(Br)cc2c1N1CCN(c2ccccc2NS(=O)(=O)c2ccc(I)cc2)CC1`, the IC50 was 2.88 µM in the data set with NCI-H1975, 9.18 µM in the data set with A549 [1], 0.29 µM in the data set on HCC827 and 5.6 µM in the data set on A549 [2].

Regarding `CCOC(=O)c1c(-n2ccnc2)nc2ccc(Br)cc2c1N1CCN(c2ccccc2NC(=O)c2ccccc2F)CC1`, the concentration for half-maximal inhibition (IC50) with NCI-H1975 came to 2.81 µM; with A549 [1] it was 8.32 µM; in the data set on HCC827, 0.17 µM; in the data set with A549 [2], 4.88 µM.

For the compound `CCOC(=O)c1c(-n2ccnc2)nc2ccc(Br)cc2c1N1CCN(c2ccccc2NS(=O)(=O)c2ccc(F)c(F)c2)CC1`, the IC50 in the data set with NCI-H1975 is 0.77 µM; in the data set on A549 [1], 3.09 µM; in data set [4] it was 0.159 µM; with HCC827, 0.099 µM; in the data set with A549 [2], 1.09 µM. In [3], the IC50 at 72 h turned out to be 45.8 µM.

In the case of `CCOC(=O)c1c(-n2ccnc2)nc2ccc(Br)cc2c1N1CCN(c2ccccc2NS(=O)(=O)c2ccc(C(C)(C)C)cc2)CC1`, the IC50 was 11.8 µM in the data set with NCI-H1975, 15.1 µM with A549 [1], 0.96 µM in the data set on HCC827 and 10.8 µM in the data set with A549 [2].

Turning to `CCOC(=O)c1c(-n2ccnc2)nc2ccc(Br)cc2c1N1CCN(c2ccccc2NC(=O)c2cc(F)ccc2I)CC1`, the IC50 was found to be 2.18 µM in the data set with NCI-H1975, 6.98 µM with A549 [1], 0.11 µM with HCC827 and 4.3 µM in the data set with A549 [2].
